# Ends that are not written are not given here.
# Tests used:
# [1] = system: cells from the peritoneal liquid and from the murine bone marrow; experiment: In vivo incorporation of Cy3-crotamine after intraperitoneal injection; design: species or system CD-1 strain mice
# Protocol: In vitro assay: Semiconffluent cultures of pluripotent and differentiation ES cells (homogeneous cell population), as well as other cell cultures of normal and tumor origin, were kept in small laminar slides placed in 24-well plates containing appropriate culture medium. Cells were incubated for 2-3 minutes to 72 hours in the presence of Cy3-crotamine, under concentrations between 10 μM and 0.01 μM, or as control, just in the presence of the dye agent Cy3 diluted in 1 ml PBS (control). In in vivo assays, 1 ml of 1 μM Cy3-crotamine or the pure control dye agent Cy3 (1 ml) in PBS were intraperitoneally injected into a mouse (line CD-1). After 3 hours, cells from the bone marrow (mixed cell population), spleen and peritoneal liquid (mixed cell population) were isolated. Cells from the peritoneal liquid adhered to the microscope slides for one hour in RPMI medium supplemented with 10% FCS and no antibiotics at 37° C., under humid atmosphere and 5% CO2. In all assays, cells were washed twice with cold solutions of 0.1 M PBS, pH 7.4, fixed with 3.7% formaldehyde in PBS for fifteen minutes and washed twice with PBS. Microscope slides were prepared in the PBS/glycerol (1:1) solution. Alternatively, non-fixed cells were washed twice with PBS and observed in the confocal microscope.
# (§1) To analyze the specific binding of Cy3-crotamine to chromatin and centrosome (a pair of small organelles named the centrioles), the same experimental procedure, as described above, was used, the sole difference consisting in the pre-treatment of ES cells and murine embryonic fibroblasts with 1 μM of free crotamine, followed by treatment with the conjugated crotamine, Cy3-crotamine, for 15 minutes more. A similar experiment was conducted in vivo, by injecting in mice both the conjugated and the free crotamine. As a control, 1 μM of Cy3-crotamine was used and incubated for 15 minutes. For the confocal microscopy analysis, cells were prepared as described above. Experiments with animals were carried out according to the international ethical recommendations for the use of animals.
# blastocyts = experiment: Internalization of Cy3-conjugated crotamine in blastocysts in vitro; format: cell-based, murine; settings: cell cytoplasm, FIG. 1
# Protocol: Embryonic bodies (EBs) were obtained by the hanging drop method, as described above, using culture medium containing crotamine at various concentrations (100 μM to 0.1 μM), changing the medium every two to three days. To analyze the crotamine location in EBs under development, crotamine was substituted with crotamine linked to Cy3 (Cy3-crotamine) during the final 24 hours of incubation. Compact murine morulae (8-16 cells) were obtained from the oviduct and cultivated for 24 hours at 37° C. in 5% CO2, in individual microwells of V-bottom plates (Costar) with […] microwells in M16 medium (supplier: Sigma) and Cy3-crotamine (1-0.1 μM). After 24 hours of culture, normally developed blastocyst numbers were compared within the control and the experimental group.
# mice = experiment: Paralysis of the hind legs of mice after intraperitoneal injection; format: in vivo; settings: sublethal dose, 50 μg of the conjugate (2.5 mg of toxin/kg) intraperitoneally, mouse
# Protocol: When injected intraperitoneally, crotamine causes a quick paralysis, in less than 15 minutes, of the hind legs of mice, which is the typical physiological effect of this toxin.
# Crotamine (1 mg) was suspended in 1 ml buffer (100 mM sodium carbonate/bicarbonate, pH 9.3) and conjugated to the fluorescent dye Cy3, a cyanine derivative supplied as a bifunctional form of an NHS-type ester in the Fluorolink Cy3 dye pack kit (Amersham Biosciences). To verify if Cy3-crotamine is biologically active, a sublethal dose, 50 μg of the conjugate (corresponding to 2.5 mg of toxin/kg) was intraperitoneally injected into a mouse. The crotamine linked to Cy3 complex caused the typical paralysis response of the hind legs in less than 15 minutes after injection.
# centrosome = experiment: Marker for centrosome; format: cell-based; settings: cells from the peritoneal liquid of mice and ES cells, FIG. 9
# Protocol: as §1
# Embryonic bodies, obtained according to the protocol as described above, after three days, adhered to small glass slides. On the following day, actively proliferating cells were simultaneously labeled with 5-bromo-2′-deoxyuridine (BrDU) and Cy3-crotamine. BrDU-labeled cell detection by the monoclonal antibody anti-BrDU (clone BU-1) was made according to manufacturer's recommendations (Amersham-Pharmacia Biotech). The secondary antibody was conjugated to the fluorescent compound FITC. […] Microscope slides were assembled in a PBS/glycerol solution (1:1) and analysed in a confocal microscope. […]
# B16F10 cells tumor = experiment: Tumor labeling by cy3-crotamine; format: in vivo, Balb/c mouse; settings: 5 μg/animal intraperitoneal, 24 hours after
# Protocol: The cells were maintained in Dulbecco's modified Eagle's cell culture medium (DMEM; Invitrogen, Carlsbad, Calif.) supplemented with 15% fetal calf serum (FCS; Invitrogen). The cells were kept at 37° C. with humidity and 5% CO2. After preparing a cell suspension with about 5×10^6 cells/ml of PBS [phosphate buffered solution], approximately 0.2 ml of this suspension was subcutaneously or endovenously (retroorbital injection) injected into each Balb/c mouse, of 4 to 6 weeks-old with body weight between 16 to 20 g. For negative control, the animals were injected with 0.2 ml of PBS. Before setting up the experiments, the animals were kept under 12 hour light-dark cycle, and were allowed to have water and food ad libitum. All animals were caged and handled under ethical conditions according to international rules of animal care, stated by the International Animal Welfare Recommendations, and in accordance with the Guidelines for the Use of Animals in Biochemical Research
# About 8 to 12 days after subcutaneous injection of B16F10 cells, the visible ‘melanoma’ tumors were removed and analyzed.
# To observe the accumulation of fluorescently labeled crotamine [Cy3-crotamine] into tumors, injected mice were treated by a single intraperitoneal injection of 5 μg of cy3-crotamine/animal. 24 hours after, the animals were sacrificed and the ‘melanoma’ tumors and internal tissues were removed and analyzed [frozen/Tissue-Tek and Paraplast block preparations]. The frozen slices were stained with DAPI and analyzed by confocal microscopy. […]
# To observe the accumulation of fluorescently labeled crotamine [Cy3-crotamine] into tumors, injected mice were treated by a single intraperitoneal injection of 5 μg of cy3-crotamine/animal. 24 hours after, the animals were sacrificed and the internal tissues (including those showing metastasis) were removed and analyzed [frozen/Tissue-Tek and Paraplast block preparations]. The frozen slices were stained with DAPI and analyzed by confocal microscopy.
# 3T3 cell line = experiment: Transfection of GFP plasmid DNA by crotamine peptide fragments; format: cell-based, mouse; settings: for treatment time giving the best result: 24 and 48 hours tested
# Protocol: 3T3 cells (spontaneously immortalized primary mouse fibroblasts) or COS-7 (cells derived from kidney of African green monkey) were plated (1.5×10^5) in 6-wells plate (dimension of 6×35 mm), containing DMEM culture medium with 10% fetal bovine serum (FBS) and […] L-glutamine, with no antibiotics, 1 or 2 days before the transfection until reaching 60% to 80% confluence of the plate. Transfection was performed in DMEM medium ([…]) with 2% FBS and 80 or 100 μM chloroquine. Aggregates (crotamine plus 2 μg DNA in 0.2 ml HBM) were added in each well, on the cells in culture. After five hours of incubation at 37° C., under humid atmosphere and 5% CO2, the medium was substituted with another one containing 10% FBS. In the control culture wells, DNA was added in the same concentration and they were processed in the same way of experimental samples. After 24 and 48 hours, cells were washed with PBSA and fixed with 3.7% formaldehyde. The transfection medium was substituted with DMEM medium, containing 10% FBS, and the transgenic expression was then evaluated 24 to 48 hours after the transfection. The efficiency of transfection as determined by DNA-peptide aggregates was compared with that obtained by using lipofectamine, following routine protocol.
# Two peptides were synthesized based on crotamine sequence, e.g. two sequences corresponding to fragments of crotamine, i.e. Crot2-18 ([…] (SEQ ID NO: 3)), herewithin designated as peptide 1, and Crot27-39 ([…] (SEQ ID NO: 4)), herewithin designated as peptide 2. The ability and efficiency of these two peptides to transfect cells in vitro and in vivo were analysed. The same protocol which was used for natural crotamine, as described in Example 9 was followed: Peptides were mixed with the plasmid DNA containing the gene coding for GFP (green fluorescent protein). After forming the complex with DNA, peptides were put on Petri dishes containing 3T3 cell line and left in the CO2 oven for 24 and 48 hours. Subsequently, cells were fixed and the result of transfection was analysed by confocal microscopy. As controls, the same cells were transfected by using Lipofectamin, as well as the crotamine molecule with 42 amino acid residues.
# [2] = three hours after intraperitoneal injection, CD-1 mice
# [3] = subcutaneous injection of B16F10
Substance,fluorescence in cytoplasm of mouse megakaryocyte ([1]; FIG. 5E-G),"fluorescence after pretreatment with non-labeled crotamine ([1]; cells pretreated with non-labeled crotamine, megakaryocyte, FIG. 5H)","signal in cytoplasm of living cells of the peritoneal liquid ([1]; living cells, FIG. 3A-C)","signal in nucleus of living cells of the peritoneal liquid ([1]; living cells, FIG. 3A-C)","signals on cells from the murine bone marrow [1, 2]","signals on cytoplasm and nucleus of cells from the peritoneal liquid [1, 2]",fluorescence in blastocysts (confocal microscopy) (blastocyts),time to typical paralysis response of the hind legs after injection (mice),marking of the centrosome cycle (centrosome),fluorescent signal inside the cell mass of B16F10 cells tumor (B16F10 cells tumor; endovenous injection of B16F10),fluorescent signal inside the cell mass of B16F10 cells tumor (B16F10 cells tumor; [3]),localization in tumor cells (overlay with DAPI) (B16F10 cells tumor; [3]),signals from actively proliferating 3T3 cells compared with the original crotamine (3T3 cell line),treatment time giving the best result (3T3 cell line; 3T3 cells) [h],"green fluorescence corresponding to GFP expression (3T3 cell line; 3T3 cells, in comparison with peptide 2, confocal microscopy)"
"Cy3-crotamine: crotamine conjugated to the fluorescent dye Cy3, a cyanine derivative (YKQCHKKGGHCFPKEKICLPPSSDFGKMDCRWRWKCCKKGSG; disulfide (positions not given here); not fully specified (bridges); ends not checked; also: Cy3 dye label, site not given here; UniProt Q9PWF3 23-64, looked up)",weak fluorescence,Strong fluorescence restricted to the cytoplasm,strong,moderate,strong signals,strong signals,intense fluorescence,less than 15 minutes,functions as a marker for the centrosome cycle,strong fluorescent signal,strong fluorescent signal,observed in the nucleus of the cells,,,
KMDCRWRWKCCKK [peptide 2],,,,,,,,,,,,,no distinctive signals,48,
KQCHKKGGHCFPKEKIC [peptide 1],,,,,,,,,,,,,no distinctive signals,48,more intense green fluorescence

# From US8278265B2, “Methods, kits and compositions comprising crotamine” (Fundacao de Amparo a Pesquisa do Estado de Sao Paulo—FAPESP, priority 2005, dated 2012)
